For orientation: Ki means a dissociation constant, usually derived from enzyme kinetics or from competition with a known ligand. Read a low Ki as tighter binding. Broadly, the Kd is the equilibrium constant for the complex coming apart. One may read the Km as the concentration of substrate that gives half-maximal velocity. By kcat is commonly meant the number of substrate molecules converted per active site and unit of time at saturation. What is called kcat/Km is the turnover number divided by the Michaelis constant.

For data set [1], the target named is T1, CLsoDHDPS (dihydrodipicolinate synthase) (Candidatus Liberibacter solanacearum, UniProt A0A0F4VK59).
T1 construct: gene dapA
Type of data set: binding.

Data set [2] addresses T1, CLsoDHDPS (dihydrodipicolinate synthase). The data set can be described thus: biochemical.
Data set [3] shares this target. The data set is described as follows: biochemical. The source holds these as a separate data set.
A further data set has as its system N[C@@H](CC=O)C(=O)O. The data set can be described thus: purified protein.

T1 sequence (A0A0F4VK59 1-296): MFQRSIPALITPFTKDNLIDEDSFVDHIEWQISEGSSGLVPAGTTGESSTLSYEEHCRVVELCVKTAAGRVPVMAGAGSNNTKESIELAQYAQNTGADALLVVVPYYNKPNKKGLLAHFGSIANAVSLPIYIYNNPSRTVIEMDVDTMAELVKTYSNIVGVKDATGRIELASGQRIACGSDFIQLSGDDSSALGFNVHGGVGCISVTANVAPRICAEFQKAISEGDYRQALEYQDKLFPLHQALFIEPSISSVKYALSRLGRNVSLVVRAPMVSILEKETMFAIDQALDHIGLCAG

Consider `O=CCCC(=O)O` [SSA, succinic semi‐aldehyde], for which the “X-ray crystal structure (1.93 Å) with pyruvate” value in data set [1] is “continuous density between Lys162, pyruvate, and succinic semi‐aldehyde such that the carbon–carbon bond between these substrates has formed”.

In the case of `NCCCC[C@H](N)C(=O)O` [lysine], the inhibitory constant (Ki) in data set [2] is 121 ± 5 µM.

Compound `CC(=O)C(=O)O` [pyruvate] returned a Kd in data set [3] of 2000 ± 700 nM.

With “CLsoDHDPS (dihydrodipicolinate synthase) (Candidatus Liberibacter solanacearum)”, in the data set on N[C@@H](CC=O)C(=O)O, the Km came to 0.033 ± 0.003 mM, the turnover number (kcat) came to 6 ± 0.2 s⁻¹ and the kcat/Km was 180000 M⁻¹ s⁻¹.

The record behind these values is PMC11201819 (Protein Science : A Publication of the Protein Society, 2024).
